This note sets out measurements from patent US20240269139A1, “COMPOUNDS FOR TARGETED PROTEIN DEGRADATION OF KINASES” (DANA-FARBER CANCER INSTITUTE, INC., priority 2020, published 2024).

Test [1] addresses T1, protein kinases (human kinome) (Homo sapiens, UniProt Q8TAS1).
T1 sequence (Q8TAS1 1-419): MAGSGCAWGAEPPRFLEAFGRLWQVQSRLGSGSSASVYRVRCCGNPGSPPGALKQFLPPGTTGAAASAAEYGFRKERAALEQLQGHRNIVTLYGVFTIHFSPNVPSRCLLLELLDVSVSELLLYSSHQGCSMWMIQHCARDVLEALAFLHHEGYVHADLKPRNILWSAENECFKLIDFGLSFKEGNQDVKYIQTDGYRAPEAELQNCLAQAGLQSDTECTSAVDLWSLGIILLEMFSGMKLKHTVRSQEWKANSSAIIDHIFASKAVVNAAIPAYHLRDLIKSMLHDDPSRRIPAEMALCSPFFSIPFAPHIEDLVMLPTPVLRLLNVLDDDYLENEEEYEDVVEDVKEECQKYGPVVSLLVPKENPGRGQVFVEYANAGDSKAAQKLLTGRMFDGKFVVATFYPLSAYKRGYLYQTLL
In kind it is cell-based. The following applies: experiment wp134.

Test [2] has as its target protein kinases (human kinome) (Homo sapiens, UniProt O43683). It counts as cell-based. The following applies: for logFC: BUB1 (O43683); for logFC BUB1 (O43683): direction down.
The target in test [3] is protein kinases (human kinome) (Homo sapiens, UniProt P11802). In kind it is cell-based. Conditions: experiment wp152.
Test [4] concerns the target protein kinases (human kinome) (Homo sapiens, UniProt Q9H0K1). It counts as cell-based. The following applies: experiment wp134.
Test [5] has as its target protein kinases (human kinome) (Homo sapiens, UniProt P51451). It counts as cell-based. Conditions: for logFC BLK: BLK (P51451), direction down; for logFC of BLK (P51451): down.
In test [6] the target is protein kinases (human kinome) (Homo sapiens, UniProt P53671). It counts as cell-based. Conditions: experiment wp152.
Test [7] deals with protein kinases (human kinome). It counts as cell-based. Conditions: for kinases the bifunctional compound degrades: as stated for the structure in the embodiments; for Kinase hits: kinases significantly downregulated vs DMSO (fold change cutoff −1.25, P-value<0.01), ≤8 h, 0.1-5 μM degrader, 7 cell lines; for Total no. kinase hits: number of degraded kinases per library compound.

In test [8] the target is T2, protein kinases (human kinome) (Homo sapiens, UniProt Q9UEE5).
T2 sequence (Q9UEE5 1-414): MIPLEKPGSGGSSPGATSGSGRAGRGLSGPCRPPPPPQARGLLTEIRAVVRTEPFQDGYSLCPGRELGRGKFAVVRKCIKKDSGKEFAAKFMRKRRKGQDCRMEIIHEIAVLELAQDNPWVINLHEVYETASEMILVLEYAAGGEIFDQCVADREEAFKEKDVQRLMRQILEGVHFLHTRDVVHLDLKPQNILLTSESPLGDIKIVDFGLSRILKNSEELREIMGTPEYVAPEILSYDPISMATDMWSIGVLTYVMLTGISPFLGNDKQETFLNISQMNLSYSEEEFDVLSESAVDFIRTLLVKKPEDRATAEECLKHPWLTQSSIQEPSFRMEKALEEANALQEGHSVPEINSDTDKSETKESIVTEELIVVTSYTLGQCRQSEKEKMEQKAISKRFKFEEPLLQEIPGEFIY
In kind it is cell-based. Conditions: STK17A Q9UEE5; experiment wp134.

The target of test [9] is protein kinases (human kinome) (Homo sapiens, UniProt P35790). It counts as cell-based. The following applies: CHKA P35790; experiment wp152.
Test [10] addresses protein kinases (human kinome) (Homo sapiens, UniProt Q07912). In kind it is cell-based.
Test [11] concerns the target T3, protein kinases (human kinome) (Homo sapiens, UniProt P42680).
T3 sequence (P42680 1-631): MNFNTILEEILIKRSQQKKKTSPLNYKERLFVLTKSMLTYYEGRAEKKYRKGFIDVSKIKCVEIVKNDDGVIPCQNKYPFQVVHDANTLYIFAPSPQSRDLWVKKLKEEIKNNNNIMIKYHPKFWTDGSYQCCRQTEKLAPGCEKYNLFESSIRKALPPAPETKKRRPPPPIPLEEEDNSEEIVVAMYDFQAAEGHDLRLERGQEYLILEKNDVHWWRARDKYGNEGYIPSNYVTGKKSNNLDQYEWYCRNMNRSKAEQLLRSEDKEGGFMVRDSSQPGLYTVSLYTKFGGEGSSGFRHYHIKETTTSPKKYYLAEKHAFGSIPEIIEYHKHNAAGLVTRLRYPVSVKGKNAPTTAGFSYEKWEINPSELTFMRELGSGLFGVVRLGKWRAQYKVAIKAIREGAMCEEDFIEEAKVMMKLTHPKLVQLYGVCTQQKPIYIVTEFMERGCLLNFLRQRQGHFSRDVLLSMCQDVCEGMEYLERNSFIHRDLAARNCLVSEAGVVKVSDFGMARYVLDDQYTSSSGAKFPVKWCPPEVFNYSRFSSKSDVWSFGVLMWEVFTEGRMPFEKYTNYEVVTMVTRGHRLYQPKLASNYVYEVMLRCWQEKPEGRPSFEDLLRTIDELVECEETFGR
It counts as cell-based. The following applies: TEC (P42680), experiment wp134.

Test [12] concerns the target extended human kinome (kinase-like proteins) (Homo sapiens, UniProt Q16875). Description: Whole cell quantitative proteomics: extended kinome hits. The following applies: Accession Q16875; experiment wp134.
The target in test [13] is protein kinases (human kinome) (Homo sapiens, UniProt Q00537). In kind it is cell-based.
In test [14] the test system is protein kinases in MOLT-4 cells. Description: Whole cell quantitative proteomics in MOLT-4 cells. The following applies: MOLT-4, 1 μM, 5 h (FIG. 1J).
Method: Whole cell multiplexed quantitative proteomics was employed to measure changes in abundance of the proteome in response to treatment with each of the kinase degrader molecules relative to DMSO (Table 1, Appendix I).
Cells were treated with DMSO (biological triplicate) or degrader at indicated dose and time and cells were harvested by centrifugation. […] Precipitated protein was resuspended in 4 M Urea, 50 mM HEPES pH 7.4, followed by dilution to 1 M urea with the addition of 200 mM EPPS, pH 8. Proteins were first digested with LysC (1:50: enzyme:protein) for 12 hours at room temperature. The LysC digestion was diluted to 0.5 M Urea with 200 mM EPPS pH 8 followed by digestion with trypsin (1:50; enzyme:protein) for 6 hours at 37° C. Tandem mass tag (TMT) reagents (Thermo Fisher Scientific) were dissolved in anhydrous acetonitrile (ACN) according to manufacturer's instructions. […] The 10, 11, or 16-plex labeling reactions were performed for 1.5 hours at room temperature and the reaction quenched by the addition of hydroxylamine to a final concentration of 0.3% for 15 minutes at room temperature. The sample channels were combined at a 1:1 ratio, desalted using C18 solid phase extraction cartridges (Waters®) and analyzed by LC-MS for channel ratio comparison. Samples were then combined using the adjusted volumes determined in the channel ratio analysis and dried down in a speed vacuum. The combined sample was then resuspended in 1% formic acid, and acidified (pH 2-3) before being subjected to desalting with C18 SPE (Sep-Pak®, Waters®). Samples were then offline fractionated into 96 fractions by high pH reverse-phase HPLC (Agilent® LC1260) through an aeris peptide xb-c18 column (Phenomenex®) with mobile phase A containing 5% acetonitrile and 10 mM NH4HCO3 in LC-MS grade H2O, and mobile phase B containing 90% acetonitrile and 10 mM NH4HCO3 in LC-MS grade H2O (both pH 8.0). The 96 resulting fractions were then pooled in a non-continuous manner into 24 fractions and desalted using C18 solid phase extraction plates (SOLA®, Thermo Fisher Scientific) followed by subsequent mass spectrometry analysis.
Data were collected using an Orbitrap Fusion™ Lumos™ mass spectrometer (Thermo Fisher Scientific, San Jose, CA, USA) coupled with a Proxeon EASY-nLC™ 1200 LC pump (Thermo Fisher Scientific) or an Orbitrap Eclipse™ Tribrid™ mass spectrometer (Thermo Fisher Scientific, San Jose, CA, USA) coupled with an UltiMate™ 3000 RSLCnano System. Peptides were separated on an EasySpray™ ES803a/ES803a.rev2 75 μm inner diameter microcapillary column (ThermoFisher Scientific).
Data dependent MS2 spectra were acquired in the ion trap with a normalized collision energy (NCE) set at 35%, AGC target set to 1.8×10^4 and a maximum injection time of 120 ms. MS3 scans were acquired in the Orbitrap with HCD collision energy set to 55%. AGC target set to 2×10^5, maximum injection time of 150 ms, resolution at 50,000 and with a maximum synchronous precursor selection (SPS) precursors set to 10.
Proteome Discoverer™ 2.1, 2.2 or 2.4 (Thermo Fisher Scientific) was used for .RAW file processing and controlling peptide and protein level false discovery rates, assembling proteins from peptides, and protein quantification from peptides.

Entries after “also recorded” stand apart in the source; their conditions may differ. Like-named read-outs stand apart in the source and are kept apart here.

protein kinases (human kinome) (Homo sapiens, UniProt O43683), sequence (O43683 whole entry): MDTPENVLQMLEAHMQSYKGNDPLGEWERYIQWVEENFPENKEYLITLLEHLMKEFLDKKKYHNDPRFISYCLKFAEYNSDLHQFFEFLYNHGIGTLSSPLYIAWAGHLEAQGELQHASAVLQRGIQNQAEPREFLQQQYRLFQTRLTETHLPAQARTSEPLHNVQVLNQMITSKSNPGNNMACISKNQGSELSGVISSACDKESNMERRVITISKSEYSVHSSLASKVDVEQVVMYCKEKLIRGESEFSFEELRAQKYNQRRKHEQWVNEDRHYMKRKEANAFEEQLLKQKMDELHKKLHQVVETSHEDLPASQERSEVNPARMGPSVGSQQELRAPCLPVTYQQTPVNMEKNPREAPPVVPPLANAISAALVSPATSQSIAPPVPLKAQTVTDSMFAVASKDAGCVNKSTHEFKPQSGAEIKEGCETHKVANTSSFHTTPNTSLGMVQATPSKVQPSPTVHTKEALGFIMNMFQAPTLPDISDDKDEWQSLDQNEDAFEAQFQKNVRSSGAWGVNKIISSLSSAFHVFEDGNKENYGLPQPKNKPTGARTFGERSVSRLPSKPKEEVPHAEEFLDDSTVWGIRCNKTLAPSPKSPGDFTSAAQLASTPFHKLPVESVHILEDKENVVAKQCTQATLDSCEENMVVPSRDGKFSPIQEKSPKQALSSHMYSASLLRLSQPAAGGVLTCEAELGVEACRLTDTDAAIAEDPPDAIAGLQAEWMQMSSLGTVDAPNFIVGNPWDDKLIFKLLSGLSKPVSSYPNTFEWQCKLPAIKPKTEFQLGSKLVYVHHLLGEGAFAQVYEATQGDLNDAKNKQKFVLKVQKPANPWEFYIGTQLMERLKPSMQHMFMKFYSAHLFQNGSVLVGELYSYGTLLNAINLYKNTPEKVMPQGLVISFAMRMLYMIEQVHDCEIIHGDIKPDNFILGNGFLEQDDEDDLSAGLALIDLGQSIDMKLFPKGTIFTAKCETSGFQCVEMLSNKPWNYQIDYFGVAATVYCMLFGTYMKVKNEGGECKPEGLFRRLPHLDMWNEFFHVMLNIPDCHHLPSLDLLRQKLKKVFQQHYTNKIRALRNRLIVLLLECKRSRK
protein kinases (human kinome) (Homo sapiens, UniProt P51451), sequence (P51451 whole entry): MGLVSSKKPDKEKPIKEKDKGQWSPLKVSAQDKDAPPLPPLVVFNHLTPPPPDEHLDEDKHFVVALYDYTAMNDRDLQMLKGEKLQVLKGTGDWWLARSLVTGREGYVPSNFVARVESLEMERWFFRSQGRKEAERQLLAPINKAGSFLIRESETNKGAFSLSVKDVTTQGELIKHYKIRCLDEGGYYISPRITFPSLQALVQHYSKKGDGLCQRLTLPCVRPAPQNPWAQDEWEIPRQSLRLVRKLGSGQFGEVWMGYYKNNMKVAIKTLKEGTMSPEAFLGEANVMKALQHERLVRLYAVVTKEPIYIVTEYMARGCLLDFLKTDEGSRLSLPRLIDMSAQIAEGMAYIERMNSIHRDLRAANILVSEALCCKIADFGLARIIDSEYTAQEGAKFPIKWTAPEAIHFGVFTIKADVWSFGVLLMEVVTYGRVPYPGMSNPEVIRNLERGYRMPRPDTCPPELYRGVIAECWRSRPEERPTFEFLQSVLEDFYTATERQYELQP
protein kinases (human kinome) (Homo sapiens, UniProt Q9H0K1), sequence (Q9H0K1 whole entry): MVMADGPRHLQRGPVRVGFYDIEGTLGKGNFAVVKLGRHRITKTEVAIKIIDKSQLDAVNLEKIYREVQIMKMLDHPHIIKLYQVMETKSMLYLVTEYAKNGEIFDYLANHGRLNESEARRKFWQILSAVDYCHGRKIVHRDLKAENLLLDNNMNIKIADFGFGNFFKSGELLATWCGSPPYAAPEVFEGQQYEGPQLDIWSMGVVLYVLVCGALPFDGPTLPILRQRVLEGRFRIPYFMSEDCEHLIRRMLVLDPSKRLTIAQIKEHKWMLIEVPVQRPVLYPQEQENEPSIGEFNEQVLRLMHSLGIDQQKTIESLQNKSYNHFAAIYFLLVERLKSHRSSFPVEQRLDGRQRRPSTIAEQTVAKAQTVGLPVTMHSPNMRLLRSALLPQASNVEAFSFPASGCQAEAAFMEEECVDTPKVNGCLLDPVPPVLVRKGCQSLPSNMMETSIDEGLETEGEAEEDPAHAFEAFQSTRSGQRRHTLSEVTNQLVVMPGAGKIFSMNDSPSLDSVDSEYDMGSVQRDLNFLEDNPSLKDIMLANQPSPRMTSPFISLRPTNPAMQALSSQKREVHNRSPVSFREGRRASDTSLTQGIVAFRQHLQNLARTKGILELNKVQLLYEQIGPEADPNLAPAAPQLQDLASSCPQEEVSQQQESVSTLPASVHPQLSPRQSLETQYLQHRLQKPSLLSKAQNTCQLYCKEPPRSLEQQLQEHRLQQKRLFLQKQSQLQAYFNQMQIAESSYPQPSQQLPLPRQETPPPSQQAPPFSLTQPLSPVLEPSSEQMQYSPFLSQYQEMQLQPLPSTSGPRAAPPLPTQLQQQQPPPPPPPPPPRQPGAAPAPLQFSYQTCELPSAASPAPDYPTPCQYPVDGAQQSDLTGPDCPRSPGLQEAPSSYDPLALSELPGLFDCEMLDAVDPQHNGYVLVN
protein kinases (human kinome) (Homo sapiens, UniProt P11802), sequence (P11802 whole entry): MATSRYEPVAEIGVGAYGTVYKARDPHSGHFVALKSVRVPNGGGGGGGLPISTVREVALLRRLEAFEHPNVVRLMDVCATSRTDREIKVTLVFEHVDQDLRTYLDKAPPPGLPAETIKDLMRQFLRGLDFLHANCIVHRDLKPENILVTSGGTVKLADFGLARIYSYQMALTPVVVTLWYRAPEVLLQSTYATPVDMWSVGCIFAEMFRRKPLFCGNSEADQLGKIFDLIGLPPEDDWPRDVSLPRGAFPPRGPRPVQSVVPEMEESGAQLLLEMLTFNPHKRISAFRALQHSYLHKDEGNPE
protein kinases (human kinome) (Homo sapiens, UniProt Q07912), sequence (Q07912 whole entry): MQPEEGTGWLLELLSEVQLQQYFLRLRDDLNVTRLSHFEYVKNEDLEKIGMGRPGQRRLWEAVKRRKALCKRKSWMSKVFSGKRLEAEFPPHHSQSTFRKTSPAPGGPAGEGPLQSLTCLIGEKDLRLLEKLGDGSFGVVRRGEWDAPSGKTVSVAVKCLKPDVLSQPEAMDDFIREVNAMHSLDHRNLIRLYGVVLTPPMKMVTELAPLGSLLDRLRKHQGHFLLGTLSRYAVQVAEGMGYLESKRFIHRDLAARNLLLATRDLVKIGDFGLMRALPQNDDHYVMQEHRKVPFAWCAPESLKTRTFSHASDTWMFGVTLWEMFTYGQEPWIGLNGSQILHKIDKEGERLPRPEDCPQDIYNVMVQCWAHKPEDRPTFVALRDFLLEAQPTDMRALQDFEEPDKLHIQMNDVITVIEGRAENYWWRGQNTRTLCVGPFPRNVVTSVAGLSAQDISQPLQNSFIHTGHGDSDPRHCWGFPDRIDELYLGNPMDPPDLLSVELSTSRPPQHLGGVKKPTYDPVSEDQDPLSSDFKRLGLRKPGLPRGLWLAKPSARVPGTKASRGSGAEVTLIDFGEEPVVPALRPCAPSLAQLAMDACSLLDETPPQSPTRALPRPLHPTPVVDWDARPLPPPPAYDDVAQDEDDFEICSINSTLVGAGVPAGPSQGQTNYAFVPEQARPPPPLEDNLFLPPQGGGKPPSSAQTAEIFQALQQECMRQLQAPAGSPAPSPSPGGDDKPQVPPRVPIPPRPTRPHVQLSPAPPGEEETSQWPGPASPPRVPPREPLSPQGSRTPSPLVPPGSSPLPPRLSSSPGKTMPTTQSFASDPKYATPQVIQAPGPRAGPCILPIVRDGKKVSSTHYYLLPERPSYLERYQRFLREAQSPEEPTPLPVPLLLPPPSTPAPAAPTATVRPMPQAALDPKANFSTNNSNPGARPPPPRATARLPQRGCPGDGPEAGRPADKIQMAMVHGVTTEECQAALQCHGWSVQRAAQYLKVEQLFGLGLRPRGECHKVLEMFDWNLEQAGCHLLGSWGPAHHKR
protein kinases (human kinome) (Homo sapiens, UniProt P53671), sequence (P53671 whole entry): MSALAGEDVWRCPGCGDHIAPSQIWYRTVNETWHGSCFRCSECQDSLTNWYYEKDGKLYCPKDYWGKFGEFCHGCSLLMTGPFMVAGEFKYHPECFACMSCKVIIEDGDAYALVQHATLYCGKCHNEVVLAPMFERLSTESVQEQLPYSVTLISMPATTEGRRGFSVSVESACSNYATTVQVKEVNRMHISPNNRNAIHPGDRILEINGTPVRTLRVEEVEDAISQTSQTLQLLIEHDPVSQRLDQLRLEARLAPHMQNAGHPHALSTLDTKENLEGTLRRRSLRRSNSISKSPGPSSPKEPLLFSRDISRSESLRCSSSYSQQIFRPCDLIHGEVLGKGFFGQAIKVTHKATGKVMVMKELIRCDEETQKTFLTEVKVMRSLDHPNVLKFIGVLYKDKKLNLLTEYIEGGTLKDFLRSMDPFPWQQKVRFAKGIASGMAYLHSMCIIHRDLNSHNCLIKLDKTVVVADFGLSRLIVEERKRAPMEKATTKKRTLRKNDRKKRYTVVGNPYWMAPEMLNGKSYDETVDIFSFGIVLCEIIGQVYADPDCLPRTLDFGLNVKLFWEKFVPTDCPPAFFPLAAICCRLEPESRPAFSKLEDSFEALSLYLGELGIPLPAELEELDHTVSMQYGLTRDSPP
extended human kinome (kinase-like proteins), sequence (Q16875 whole entry): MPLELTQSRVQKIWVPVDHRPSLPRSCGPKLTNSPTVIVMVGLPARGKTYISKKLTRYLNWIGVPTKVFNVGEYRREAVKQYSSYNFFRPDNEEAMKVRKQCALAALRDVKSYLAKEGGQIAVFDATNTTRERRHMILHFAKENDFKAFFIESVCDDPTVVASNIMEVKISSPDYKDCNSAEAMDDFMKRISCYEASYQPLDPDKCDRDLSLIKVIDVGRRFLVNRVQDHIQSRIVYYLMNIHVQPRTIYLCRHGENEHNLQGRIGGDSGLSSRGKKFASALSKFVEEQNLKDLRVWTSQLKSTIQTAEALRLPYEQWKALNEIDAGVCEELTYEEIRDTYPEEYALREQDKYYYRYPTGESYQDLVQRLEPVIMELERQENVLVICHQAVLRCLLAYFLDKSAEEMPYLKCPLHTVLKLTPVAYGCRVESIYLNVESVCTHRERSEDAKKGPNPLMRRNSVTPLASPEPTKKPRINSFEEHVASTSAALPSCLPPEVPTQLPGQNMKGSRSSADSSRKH

Take `CN[C@@H](C)C(=O)N[C@H](C(=O)N1CCC[C@H]1c1nc(C(=O)c2cccc(OCCCCCn3cc(CN4CCN(c5ccc(Nc6ncc7c(n6)N(C)C(=O)N(c6cc(NC(=O)c8cccc(C(F)(F)F)c8)ccc6C)C7)cn5)CC4)nn3)c2)cs1)C1CCCCC1` [DB118430]: the “logFC UHMK1” value is −0.4944 in test [1] (Accession Q8TAS1, direction down) and −0.4944 in test [1] (UHMK1 (Q8TAS1)). Also, the logFC in [2] (experiment wp134) is on record as −0.3866; in [2] (experiment wp152), −0.3814; in test [8], −0.3497; in test [9], −0.3601; in [11], −0.5666; in [11] (direction down), −0.5666. Also, the “logFC BUB1 (O43683)” value in test [2] (Experiment wp134) is −0.3866; in test [2] (Experiment wp152), −0.3814. Also, in [3], the “logFC CDK4 (P11802)” value is reported as −0.3644. Further, the “logFC of SIK2” value in test [4] (Accession Q9H0K1) is −0.3803. Besides, the “logFC SIK2 (Q9H0K1)” value in test [4] (direction of change down) is −0.3803. Besides, the results for the “logFC BLK” value in test [5] (experiment wp134) and in test [5] (experiment wp152) were −0.5826 and −0.9023, respectively. Further, the entries for the “logFC of BLK (P51451)” value in test [5] (Experiment wp134) and in test [5] (Experiment wp152) were −0.5826 and −0.9023, respectively. In test [6] (LIMK2 (P53671), down), the “logFC LIMK2” value is on record as −0.4571. Moreover, in test [6] (LIMK2 P53671), the “logFC of LIMK2” value is on record as −0.4571. The “kinases the bifunctional compound degrades” value in [7] was “BLK, BUB1, CDK4, LIMK2, SIK2, STK17A, TEC, TNK2, and UHMK1”. The Kinase hits entry in test [7] is listed as “BLK, BUB1, CDK4, LIMK2, SIK2, STK17A, TEC, TNK2, UHMK1”. In addition, the “Total no. kinase hits” value in test [7] worked out at 9. Besides, the “logFC STK17A” value in [8] was −0.3497. Further, the “logFC TNK2 (Q07912-1)” value in test [10] (Experiment wp134, direction down) is reported as −0.575. Besides, the “logFC TNK2” value in [10] (TNK2 (Q07912-1), experiment wp134) is listed as −0.575. Besides, the “logFC PFKFB3” value in test [12] was −0.4616.

On to `Cc1ncsc1-c1ccc([C@H](C)NC(=O)[C@@H]2C[C@@H](O)CN2C(=O)[C@@H](NC(=O)CCOCCOCCNc2nccc(-c3sc(C(C)(C)C)nc3-c3cccc(NS(=O)(=O)c4c(F)cccc4F)c3F)n2)C(C)(C)C)cc1` [DD-03-156, (2S,4R)-1-((S)-2-(3-(2-(2-((4-(2-(tert-butyl)-4-(3-((2,6-difluorophenyl)sulfonamido)-2-fluorophenyl)thiazol-5-yl)pyrimidin-2-yl)amino)ethoxy)ethoxy)propanamido)-3,3-dimethylbutanoyl)-4-hydroxy-N—((S)-1-(4-(4-methylthiazol-5-yl)phenyl)ethyl)pyrrolidine-2-2377 carboxamide], for which, in test [7], the “kinases the bifunctional compound degrades” value is “CDK17, LIMK1, and LIMK2”; the Kinase hits result is reported as “CDK17, LIMK1, LIMK2”; the “Total no. kinase hits” value was determined as 3. Besides, the “preference for degrading CDK17” value in [13] is listed as “strong preference for degrading CDK17”. The “degradation profile (potency and selectivity)” value in test [14] was “potent and selective degradation of only CDK17 and LIMK2; also recorded: exquisite”.
